Source: PMC6308032 (Molecular Metabolism, 2018)

Columns and labels:
healthy subjects = assay: Pharmacodynamics; type: in vivo, human; settings: MAD, dulaglutide 1.5 mg/wk, LSM
[1] = test system: healthy subjects and patients with T2DM; assay: ECG analysis; type: in vivo, human
[2] = test system: healthy subjects and patients with T2DM; assay: Other safety laboratory parameters; type: in vivo, human
[3] = Clinical pharmacokinetics, MAD part; type: in vivo; settings: human, SC once weekly
[4] = Immunogenicity, anti-drug antibody; type: in vivo, human; settings: whole study
[5] = Clinical pharmacokinetics, SAD part; type: in vivo; settings: human; for AUC(0-inf) / CL/F / Cmax / Tmax / Vd/F / half-life: plasma, sc
patients with T2DM = assay: Adverse events, Phase 1b POC part; type: in vivo, human; settings: for Any TEAE: T2DM patients

Dulaglutide: selective GLP-1 receptor agonist, positive control, 1.5 mg/0.5 mL single-use pen
Body Weight Change from Baseline, Day 29 (healthy subjects): -1.3 kg

CC[C@H](C)[C@H](NC(=O)[C@H](CC(C)C)NC(=O)[C@H](Cc1c[nH]c2ccccc12)NC(=O)[C@H](CCC(N)=O)NC(=O)[C@@H](NC(=O)[C@H](Cc1ccccc1)NC(=O)[C@H](C)NC(=O)[C@H](CCCCNC(=O)COCCOCCNC(=O)COCCOCCNC(=O)CC[C@H](NC(=O)CCCCCCCCCCCCCCCCCCC(=O)O)C(=O)O)NC(=O)[C@H](CCC(N)=O)NC(=O)[C@H](C)NC(=O)[C@@H](NC(=O)[C@H](CCCCN)NC(=O)[C@H](CC(=O)O)NC(=O)[C@H](CC(C)C)NC(=O)C(C)(C)NC(=O)[C@@H](NC(=O)[C@H](CO)NC(=O)[C@H](Cc1ccc(O)cc1)NC(=O)[C@H](CC(=O)O)NC(=O)[C@H](CO)NC(=O)[C@@H](NC(=O)[C@H](Cc1ccccc1)NC(=O)[C@@H](NC(=O)CNC(=O)[C@H](CCC(=O)O)NC(=O)C(C)(C)NC(=O)[C@@H](N)Cc1ccc(O)cc1)[C@@H](C)O)[C@@H](C)O)[C@@H](C)CC)[C@@H](C)CC)C(C)C)C(=O)N[C@@H](C)C(=O)NCC(=O)NCC(=O)N1CCC[C@H]1C(=O)N[C@@H](CO)C(=O)N[C@@H](CO)C(=O)NCC(=O)N[C@@H](C)C(=O)N1CCC[C@H]1C(=O)N1CCC[C@H]1C(=O)N1CCC[C@H]1C(=O)N[C@@H](CO)C(N)=O [LY3298176]
drug-related QT prolongation [1]: no signal of drug-related QT prolongation
lipase and amylase, mean values compared to baseline [2]: Increases from baseline in mean values of lipase and amylase within the normal range
average accumulation following four weekly doses [3]: 1.58
mean steady-state volume of distribution [3]: 9.5 L
subjects who developed treatment-emergent or treatment-boosted ADAs [4]: Four
time of maximum concentration after dosing ([5]; SC, over the doses studied): 24 to 48 h
AUC(0-inf) ([5]; 0.25 mg): 5760 ng·h/mL
CL/F ([5]; 0.25 mg): 0.723 mL/min
Cmax ([5]; 0.25 mg): 26 ng/mL
Tmax ([5]; 0.25 mg): 48 h
Vd/F ([5]; 0.25 mg): 7.26 L
half-life ([5]; 0.25 mg): 116 h
AUC(0-inf) ([5]; 0.5 mg): 12000 ng·h/mL
CL/F ([5]; 0.5 mg): 0.693 mL/min
Cmax ([5]; 0.5 mg): 57.7 ng/mL
Tmax ([5]; 0.5 mg): 48 h
Vd/F ([5]; 0.5 mg): 7.46 L
half-life ([5]; 0.5 mg): 124 h
AUC(0-inf) ([5]; 1 mg): 22600 ng·h/mL
CL/F ([5]; 1 mg): 0.738 mL/min
Cmax ([5]; 1 mg): 108 ng/mL
Tmax ([5]; 1 mg): 24 h
Vd/F ([5]; 1 mg): 6.76 L
AUC(0-inf) ([5]; 2.5 mg): 53200 ng·h/mL
CL/F ([5]; 2.5 mg): 0.783 mL/min
Cmax ([5]; 2.5 mg): 231 ng/mL
Tmax ([5]; 2.5 mg): 24 h
Vd/F ([5]; 2.5 mg): 8.15 L
AUC(0-inf) ([5]; 5 mg): 90500 ng·h/mL
CL/F ([5]; 5 mg): 0.922 mL/min
Cmax ([5]; 5 mg): 397 ng/mL
Tmax ([5]; 5 mg): 24 h
Vd/F ([5]; 5 mg): 9.8 L
AUC(0-inf) ([5]; 8 mg): 169000 ng·h/mL
CL/F ([5]; 8 mg): 0.787 mL/min
Cmax ([5]; 8 mg): 874 ng/mL
Tmax ([5]; 8 mg): 48 h
Vd/F ([5]; 8 mg): 7.55 L
half-life ([5]; mean half-life): ~120 h
Abdominal distension (patients with T2DM; 0.5 mg, N=9): 0 (0.0) n (%)
Abdominal pain (patients with T2DM; 0.5 mg, N=9): 0 (0.0) n (%)
Acute pancreatitis (patients with T2DM; 0.5 mg, N=9): 0 (0.0) n (%)
Decreased appetite (patients with T2DM; 0.5 mg, N=9): 2 (22.2) n (%)
Dermatitis allergic (patients with T2DM; 0.5 mg, N=9): 0 (0.0) n (%)
Diarrhoea (patients with T2DM; 0.5 mg, N=9): 1 (11.1) n (%)
Dyspepsia (patients with T2DM; 0.5 mg, N=9): 0 (0.0) n (%)
Eructation (patients with T2DM; 0.5 mg, N=9): 0 (0.0) n (%)
Gastrooesophageal reflux disease (patients with T2DM; 0.5 mg, N=9): 0 (0.0) n (%)
Headache (patients with T2DM; 0.5 mg, N=9): 1 (11.1) n (%)
Hepatic enzyme increased (patients with T2DM; 0.5 mg, N=9): 0 (0.0) n (%)
Injection site reaction (patients with T2DM; 0.5 mg, N=9): 0 (0.0) n (%)
Nausea (patients with T2DM; 0.5 mg, N=9): 1 (11.1) n (%)
Pancreatic enzyme increased (patients with T2DM; 0.5 mg, N=9): 0 (0.0) n (%)
Serious adverse events (patients with T2DM; 0.5 mg, N=9): 0 (0.0) n (%)
Severe hypoglycaemia (patients with T2DM; 0.5 mg, N=9): 0 (0.0) n (%)
Study discontinuation due to adverse events (patients with T2DM; 0.5 mg, N=9): 0 (0.0) n (%)
TEAE Mild, events (patients with T2DM; 0.5 mg, N=9): 15 events
TEAE Moderate, events (patients with T2DM; 0.5 mg, N=9): 0 events
TEAE Severe, events (patients with T2DM; 0.5 mg, N=9): 0 events
Total hypoglycaemia (≤70 mg/dL) (patients with T2DM; 0.5 mg, N=9): 0 (0.0) n (%)
Vomiting (patients with T2DM; 0.5 mg, N=9): 1 (11.1) n (%)
Weight decrease (TEAE) (patients with T2DM; 0.5 mg, N=9): 0 (0.0) n (%)
Abdominal distension (patients with T2DM; 5 mg, N=9): 1 (11.1) n (%)
Abdominal pain (patients with T2DM; 5 mg, N=9): 0 (0.0) n (%)
Acute pancreatitis (patients with T2DM; 5 mg, N=9): 0 (0.0) n (%)
Decreased appetite (patients with T2DM; 5 mg, N=9): 6 (66.7) n (%)
Dermatitis allergic (patients with T2DM; 5 mg, N=9): 0 (0.0) n (%)
Diarrhoea (patients with T2DM; 5 mg, N=9): 1 (11.1) n (%)
Dyspepsia (patients with T2DM; 5 mg, N=9): 0 (0.0) n (%)
Eructation (patients with T2DM; 5 mg, N=9): 0 (0.0) n (%)
Gastrooesophageal reflux disease (patients with T2DM; 5 mg, N=9): 1 (11.1) n (%)
Headache (patients with T2DM; 5 mg, N=9): 0 (0.0) n (%)
Hepatic enzyme increased (patients with T2DM; 5 mg, N=9): 0 (0.0) n (%)
Injection site reaction (patients with T2DM; 5 mg, N=9): 0 (0.0) n (%)
Nausea (patients with T2DM; 5 mg, N=9): 1 (11.1) n (%)
Pancreatic enzyme increased (patients with T2DM; 5 mg, N=9): 0 (0.0) n (%)
Serious adverse events (patients with T2DM; 5 mg, N=9): 0 (0.0) n (%)
Severe hypoglycaemia (patients with T2DM; 5 mg, N=9): 0 (0.0) n (%)
Study discontinuation due to adverse events (patients with T2DM; 5 mg, N=9): 3 (33.3) n (%)
TEAE Mild, events (patients with T2DM; 5 mg, N=9): 17 events
TEAE Moderate, events (patients with T2DM; 5 mg, N=9): 0 events
TEAE Severe, events (patients with T2DM; 5 mg, N=9): 0 events
Total hypoglycaemia (≤70 mg/dL) (patients with T2DM; 5 mg, N=9): 0 (0.0) n (%)
Vomiting (patients with T2DM; 5 mg, N=9): 0 (0.0) n (%)
Weight decrease (TEAE) (patients with T2DM; 5 mg, N=9): 0 (0.0) n (%)
Abdominal distension (patients with T2DM; 5/5/10/10 mg, N=12): 2 (16.7) n (%)
Abdominal pain (patients with T2DM; 5/5/10/10 mg, N=12): 0 (0.0) n (%)
Acute pancreatitis (patients with T2DM; 5/5/10/10 mg, N=12): 0 (0.0) n (%)
Decreased appetite (patients with T2DM; 5/5/10/10 mg, N=12): 5 (41.7) n (%)
Dermatitis allergic (patients with T2DM; 5/5/10/10 mg, N=12): 0 (0.0) n (%)
Diarrhoea (patients with T2DM; 5/5/10/10 mg, N=12): 3 (25.0) n (%)
Dyspepsia (patients with T2DM; 5/5/10/10 mg, N=12): 3 (25.0) n (%)
Eructation (patients with T2DM; 5/5/10/10 mg, N=12): 1 (8.3) n (%)
Gastrooesophageal reflux disease (patients with T2DM; 5/5/10/10 mg, N=12): 1 (8.3) n (%)
Headache (patients with T2DM; 5/5/10/10 mg, N=12): 0 (0.0) n (%)
Hepatic enzyme increased (patients with T2DM; 5/5/10/10 mg, N=12): 1 (8.3) n (%)
Injection site reaction (patients with T2DM; 5/5/10/10 mg, N=12): 0 (0.0) n (%)
Nausea (patients with T2DM; 5/5/10/10 mg, N=12): 1 (8.3) n (%)
Pancreatic enzyme increased (patients with T2DM; 5/5/10/10 mg, N=12): 0 (0.0) n (%)
Serious adverse events (patients with T2DM; 5/5/10/10 mg, N=12): 0 (0.0) n (%)
Severe hypoglycaemia (patients with T2DM; 5/5/10/10 mg, N=12): 0 (0.0) n (%)
Study discontinuation due to adverse events (patients with T2DM; 5/5/10/10 mg, N=12): 0 (0.0) n (%)
TEAE Mild, events (patients with T2DM; 5/5/10/10 mg, N=12): 54 events
TEAE Moderate, events (patients with T2DM; 5/5/10/10 mg, N=12): 1 events
TEAE Severe, events (patients with T2DM; 5/5/10/10 mg, N=12): 0 events
Total hypoglycaemia (≤70 mg/dL) (patients with T2DM; 5/5/10/10 mg, N=12): 2 (16.7) n (%)
Vomiting (patients with T2DM; 5/5/10/10 mg, N=12): 1 (8.3) n (%)
Weight decrease (TEAE) (patients with T2DM; 5/5/10/10 mg, N=12): 2 (16.7) n (%)
Abdominal distension (patients with T2DM; 5/5/10/15 mg, N=12): 7 (58.3) n (%)
Abdominal pain (patients with T2DM; 5/5/10/15 mg, N=12): 2 (16.7) n (%)
Acute pancreatitis (patients with T2DM; 5/5/10/15 mg, N=12): 0 (0.0) n (%)
Decreased appetite (patients with T2DM; 5/5/10/15 mg, N=12): 11 (91.7) n (%)
Dermatitis allergic (patients with T2DM; 5/5/10/15 mg, N=12): 2 (16.7) n (%)
Diarrhoea (patients with T2DM; 5/5/10/15 mg, N=12): 5 (41.7) n (%)
Dyspepsia (patients with T2DM; 5/5/10/15 mg, N=12): 0 (0.0) n (%)
Eructation (patients with T2DM; 5/5/10/15 mg, N=12): 4 (33.3) n (%)
Gastrooesophageal reflux disease (patients with T2DM; 5/5/10/15 mg, N=12): 5 (41.7) n (%)
Headache (patients with T2DM; 5/5/10/15 mg, N=12): 2 (16.7) n (%)
Hepatic enzyme increased (patients with T2DM; 5/5/10/15 mg, N=12): 1 (8.3) n (%)
Injection site reaction (patients with T2DM; 5/5/10/15 mg, N=12): 0 (0.0) n (%)
Nausea (patients with T2DM; 5/5/10/15 mg, N=12): 6 (50.0) n (%)
Pancreatic enzyme increased (patients with T2DM; 5/5/10/15 mg, N=12): 1 (8.3) n (%)
Serious adverse events (patients with T2DM; 5/5/10/15 mg, N=12): 0 (0.0) n (%)
Severe hypoglycaemia (patients with T2DM; 5/5/10/15 mg, N=12): 0 (0.0) n (%)
Study discontinuation due to adverse events (patients with T2DM; 5/5/10/15 mg, N=12): 0 (0.0) n (%)
TEAE Mild, events (patients with T2DM; 5/5/10/15 mg, N=12): 87 events
TEAE Moderate, events (patients with T2DM; 5/5/10/15 mg, N=12): 9 events
TEAE Severe, events (patients with T2DM; 5/5/10/15 mg, N=12): 0 events
Total hypoglycaemia (≤70 mg/dL) (patients with T2DM; 5/5/10/15 mg, N=12): 1 (8.3) n (%)
Vomiting (patients with T2DM; 5/5/10/15 mg, N=12): 9 (75.0) n (%)
Weight decrease (TEAE) (patients with T2DM; 5/5/10/15 mg, N=12): 2 (16.7) n (%)
Any TEAE (patients with T2DM; 0.5 mg QW x4 SC, N=9): 5 (55.6) n (%)
Any TEAE (patients with T2DM; 5 mg QW x4 SC, N=9): 7 (77.8) n (%)
Any TEAE (patients with T2DM; 5/5/10/10 mg QW SC, N=12): 10 (83.3) n (%)
Any TEAE (patients with T2DM; 5/5/10/15 mg QW SC, N=12): 11 (91.7) n (%)
